Experimental data reported in PubChem BioAssay AID1963425 (Molecular Pharmacology Branch, DTP, NCI, 2024).

Tested on: 323965-272-R-J2-PDC complex spheroid growth, % test/control
Assay: Anticancer human tumor 323965-272-R-J2-PDC patient-derived pancreatic carcinoma cell line growth inhibition [Asc]
Conditions: for IC50: curve of first compound; for viability, T/C: stronger effect = lower value
Method in brief: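 Complex spheroids combining tumor cells with HUVEC endothelial cells and human MSCs, at 37 degrees C, 5% CO2; agents tested alone or combined, half-log dilutions from at or near clinical Cmax, or 10 microM if Cmax unknown.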

[1] = second compound 0.0316 µM, first compound 0.0316 µM
[2] = second compound 0.0316 µM, first compound 0.1 µM
[3] = second compound 0.0316 µM, first compound 0.316 µM
[4] = second compound 0.0316 µM, first compound 1 µM
[5] = second compound 0.1 µM, first compound 0.0316 µM
[6] = second compound 0.1 µM, first compound 0.1 µM
[7] = second compound 0.1 µM, first compound 0.316 µM
[8] = second compound 0.1 µM, first compound 1 µM
[9] = second compound 0.316 µM, first compound 0.0316 µM
[10] = second compound 0.316 µM, first compound 0.1 µM
[11] = second compound 0.316 µM, first compound 0.316 µM
[12] = second compound 0.316 µM, first compound 1 µM
[13] = second compound 1 µM, first compound 0.0316 µM
[14] = second compound 1 µM, first compound 0.1 µM
[15] = second compound 1 µM, first compound 0.316 µM
[16] = second compound 1 µM, first compound 1 µM
[17] = second compound 3.16 µM, first compound 0.0316 µM
[18] = second compound 3.16 µM, first compound 0.1 µM
[19] = second compound 3.16 µM, first compound 0.316 µM
[20] = second compound 3.16 µM, first compound 1 µM
[21] = second compound 10 µM, first compound 0.0316 µM
[22] = second compound 10 µM, first compound 0.1 µM
[23] = second compound 10 µM, first compound 0.316 µM
[24] = second compound 10 µM, first compound 1 µM
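Also: compound exposure lasted 7 days starting three days after spheroid seeding.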
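For viability, T/C in this document: 100% = DMSO vehicle control wells with viability set relative to vehicle.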

Q: What does the source list for `C#Cc1c(F)ccc2cc(O)cc(-c3ncc4c(N5CC6CCC(C5)N6)nc(OCC56CCCN5CC(F)C6)nc4c3F)c12` (centres undefined) + Cc1c(S(C)(=O)=O)c(-c2cc(F)cc(N3CCN(c4ccc(NS(=O)(=O)c5ccc(NC(CCN6CCC(C(=O)OCCCP(=O)(O)O)CC6)CSc6ccccc6)c(S(=O)(=O)C(F)(F)F)c5)cc4)CC3)c2)c(-c2ccc(Cl)cc2)n1C(C)C?
A: IC50 (second compound 0.0316 µM): > 10 µM; IC50 (second compound 0.1 µM): > 10 µM; IC50 (second compound 0.316 µM): 8.15 µM; IC50 (second compound 1 µM): 6.92 µM; IC50 (second compound 3.16 µM): 4.12 µM; IC50 (second compound 10 µM): 3.59 µM; viability, T/C [1]: 99.9%; viability, T/C [2]: 98.2%; viability, T/C [3]: 109%; viability, T/C [4]: 108%; viability, T/C (second compound 0.0316 µM, first compound 3.16 µM): 79.4%; viability, T/C (second compound 0.0316 µM, first compound 10 µM): 58.2%; viability, T/C [5]: 100%; viability, T/C [6]: 111%; viability, T/C [7]: 93.2%; viability, T/C [8]: 93.2%; viability, T/C (second compound 0.1 µM, first compound 3.16 µM): 75.7%; viability, T/C (second compound 0.1 µM, first compound 10 µM): 51.4%; viability, T/C [9]: 97.8%; viability, T/C [10]: 99.1%; viability, T/C [11]: 98.2%; viability, T/C [12]: 90.6%; viability, T/C (second compound 0.316 µM, first compound 3.16 µM): 73.9%; viability, T/C (second compound 0.316 µM, first compound 10 µM): 45%; viability, T/C [13]: 87.1%; viability, T/C [14]: 87.9%; viability, T/C [15]: 88.4%; viability, T/C [16]: 80.8%; viability, T/C (second compound 1 µM, first compound 3.16 µM): 67.9%; viability, T/C (second compound 1 µM, first compound 10 µM): 41.5%; viability, T/C [17]: 74.6%; viability, T/C [18]: 73.8%; viability, T/C [19]: 80.7%; viability, T/C [20]: 76.5%; viability, T/C (second compound 3.16 µM, first compound 3.16 µM): 56.2%; viability, T/C (second compound 3.16 µM, first compound 10 µM): 29.3%; viability, T/C [21]: 72%; viability, T/C [22]: 73.6%; viability, T/C [23]: 59.9%; viability, T/C [24]: 72%; viability, T/C (second compound 10 µM, first compound 3.16 µM): 50.9%; viability, T/C (second compound 10 µM, first compound 10 µM): 24.4%

Q: What does the source list for `CNC(C)C(=O)NC1CN(S(=O)(=O)c2cccc(S(=O)(=O)N3CCC4CCC(C(=O)NC(c5ccccc5)c5ccccc5)N4C(=O)C(NC(=O)C(C)NC)C3)c2)CCC2CCC(C(=O)NC(c3ccccc3)c3ccccc3)N2C1=O` (centres undefined) + Cc1c(S(C)(=O)=O)c(-c2cc(F)cc(N3CCN(c4ccc(NS(=O)(=O)c5ccc(NC(CCN6CCC(C(=O)OCCCP(=O)(O)O)CC6)CSc6ccccc6)c(S(=O)(=O)C(F)(F)F)c5)cc4)CC3)c2)c(-c2ccc(Cl)cc2)n1C(C)C?
A: IC50 (second compound 0.0316 µM): > 1 µM; IC50 (second compound 0.1 µM): > 1 µM; IC50 (second compound 0.316 µM): 0.878 µM; IC50 (second compound 1 µM): 0.745 µM; IC50 (second compound 3.16 µM): 0.569 µM; IC50 (second compound 10 µM): 0.324 µM; viability, T/C (second compound 0.0316 µM, first compound 0.00316 µM): 106%; viability, T/C (second compound 0.0316 µM, first compound 0.01 µM): 119%; viability, T/C [1]: 96.3%; viability, T/C [2]: 103%; viability, T/C [3]: 99.3%; viability, T/C [4]: 58.4%; viability, T/C (second compound 0.1 µM, first compound 0.00316 µM): 107%; viability, T/C (second compound 0.1 µM, first compound 0.01 µM): 96.6%; viability, T/C [5]: 98.2%; viability, T/C [6]: 107%; viability, T/C [7]: 93%; viability, T/C [8]: 54.1%; viability, T/C (second compound 0.316 µM, first compound 0.00316 µM): 96.9%; viability, T/C (second compound 0.316 µM, first compound 0.01 µM): 90.1%; viability, T/C [9]: 90.8%; viability, T/C [10]: 86.1%; viability, T/C [11]: 93.4%; viability, T/C [12]: 44.7%; viability, T/C (second compound 1 µM, first compound 0.00316 µM): 90.2%; viability, T/C (second compound 1 µM, first compound 0.01 µM): 85.7%; viability, T/C [13]: 85.7%; viability, T/C [14]: 76.7%; viability, T/C [15]: 83%; viability, T/C [16]: 38.8%; viability, T/C (second compound 3.16 µM, first compound 0.00316 µM): 79.8%; viability, T/C (second compound 3.16 µM, first compound 0.01 µM): 70.9%; viability, T/C [17]: 64%; viability, T/C [18]: 75.8%; viability, T/C [19]: 72%; viability, T/C [20]: 29%; viability, T/C (second compound 10 µM, first compound 0.00316 µM): 77.4%; viability, T/C (second compound 10 µM, first compound 0.01 µM): 80.1%; viability, T/C [21]: 65.8%; viability, T/C [22]: 59.8%; viability, T/C [23]: 57%; viability, T/C [24]: 22.6%
